Data from the supplement of paper PMC10307832.

Key:
Assay in all cases: relative viability (nuclei count vs DMSO), 5 days (fraction); higher = more cells survive
[1] = tested on: CAL-12T
Outline: (§1)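 Relative viability equals treated-well nuclei counts divided by vehicle-well nuclei counts. Counts came from 4× images of lung cancer cell lines grown in 1536-well plates for 5 days after pin-tool dosing on the day after seeding. Dosing used one drug alone or a fixed anchor-drug dose plus five library-drug doses (not always all listed) in √10 steps, and values are medians of duplicate plates.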

[2] = tested on: ChaGo-K-1
Outline: as §1

[3] = tested on: EMC-BAC-2
Outline: as §1

[4] = tested on: HCC-366
Outline: as §1

[5] = tested on: HCC-78
Outline: as §1

[6] = tested on: HOP-62
Outline: as §1

[7] = tested on: LC-2-ad
Outline: as §1

[8] = tested on: LK-2
Outline: as §1

[9] = tested on: NCI-H1355
Outline: as §1

[10] = tested on: NCI-H1734
Outline: as §1

[11] = tested on: NCI-H1993
Outline: as §1

[12] = tested on: NCI-H2009
Outline: as §1

[13] = tested on: NCI-H2085
Outline: as §1

[14] = tested on: NCI-H2228
Outline: as §1

[15] = tested on: NCI-H2347
Outline: as §1

[16] = tested on: NCI-H2405
Outline: as §1

[17] = tested on: NCI-H3122
Outline: as §1

[18] = tested on: NCI-H596
Outline: as §1

[19] = tested on: PC-14
Outline: as §1

[20] = tested on: RERF-LC-KJ
Outline: as §1

[21] = tested on: SK-MES-1
Outline: as §1

[22] = tested on: SW 1573
Outline: as §1

[23] = tested on: SW 900
Outline: as §1

CCCCCCCCCCCC1=C(O)C(=O)C=C(O)C1=O [Embelin] + Cc1nc(Nc2ncc(C(=O)Nc3c(C)cccc3Cl)s2)cc(N2CCN(CCO)CC2)n1 [Dasatinib] (partner 0.075 µM)
relative viability ([1]; first compound 0.08 µM): 0.414 | relative viability ([1]; first compound 0.8 µM): 0.522 | relative viability ([1]; first compound 2.53 µM): 0.481 | relative viability ([1]; first compound 8 µM): 0.539 | relative viability ([2]; first compound 0.08 µM): 0.501 | relative viability ([2]; first compound 0.8 µM): 0.576 | relative viability ([2]; first compound 2.53 µM): 0.585 | relative viability ([2]; first compound 8 µM): 0.582 | relative viability ([3]; first compound 0.08 µM): 0.304 | relative viability ([3]; first compound 0.8 µM): 0.46 | relative viability ([3]; first compound 2.53 µM): 0.341 | relative viability ([3]; first compound 8 µM): 0.291 | relative viability ([4]; first compound 0.08 µM): 0.593 | relative viability ([4]; first compound 0.8 µM): 0.688 | relative viability ([4]; first compound 2.53 µM): 0.984 | relative viability ([4]; first compound 8 µM): 0.557 | relative viability ([5]; first compound 0.08 µM): 0.373 | relative viability ([5]; first compound 0.8 µM): 0.44 | relative viability ([5]; first compound 2.53 µM): 0.353 | relative viability ([5]; first compound 8 µM): 0.451 | relative viability ([6]; first compound 0.08 µM): 0.66 | relative viability ([6]; first compound 0.8 µM): 0.776 | relative viability ([6]; first compound 2.53 µM): 0.68 | relative viability ([6]; first compound 8 µM): 0.654 | relative viability ([7]; first compound 0.08 µM): 0.596 | relative viability ([7]; first compound 0.8 µM): 0.837 | relative viability ([7]; first compound 2.53 µM): 0.823 | relative viability ([7]; first compound 8 µM): 0.412 | relative viability ([8]; first compound 0.08 µM): 0.26 | relative viability ([8]; first compound 0.8 µM): 0.427 | relative viability ([8]; first compound 2.53 µM): 0.304 | relative viability ([8]; first compound 8 µM): 0.237 | relative viability ([9]; first compound 0.08 µM): 0.753 | relative viability ([9]; first compound 0.8 µM): 0.808 | relative viability ([9]; first compound 2.53 µM): 0.845 | relative viability ([9]; first compound 8 µM): 0.586 | relative viability ([10]; first compound 0.08 µM): 0.424 | relative viability ([10]; first compound 0.8 µM): 0.53 | relative viability ([10]; first compound 2.53 µM): 0.514 | relative viability ([10]; first compound 8 µM): 0.419 | relative viability ([11]; first compound 0.08 µM): 0.641 | relative viability ([11]; first compound 0.8 µM): 0.602 | relative viability ([11]; first compound 2.53 µM): 0.535 | relative viability ([11]; first compound 8 µM): 0.509 | relative viability ([12]; first compound 0.08 µM): 0.342 | relative viability ([12]; first compound 0.8 µM): 0.487 | relative viability ([12]; first compound 2.53 µM): 0.243 | relative viability ([12]; first compound 8 µM): 0.251 | relative viability ([13]; first compound 0.08 µM): 0.253 | relative viability ([13]; first compound 0.8 µM): 0.246 | relative viability ([13]; first compound 2.53 µM): 0.227 | relative viability ([13]; first compound 8 µM): 0.209 | relative viability ([14]; first compound 0.08 µM): 0.503 | relative viability ([14]; first compound 0.8 µM): 0.618 | relative viability ([14]; first compound 2.53 µM): 0.592 | relative viability ([14]; first compound 8 µM): 0.396 | relative viability ([15]; first compound 0.08 µM): 0.332 | relative viability ([15]; first compound 0.8 µM): 0.33 | relative viability ([15]; first compound 2.53 µM): 0.296 | relative viability ([15]; first compound 8 µM): 0.309 | relative viability ([16]; first compound 0.08 µM): 0.238 | relative viability ([16]; first compound 0.8 µM): 0.24 | relative viability ([16]; first compound 2.53 µM): 0.178 | relative viability ([16]; first compound 8 µM): 0.215 | relative viability ([17]; first compound 0.08 µM): 0.823 | relative viability ([17]; first compound 0.8 µM): 0.922 | relative viability ([17]; first compound 2.53 µM): 0.853 | relative viability ([17]; first compound 8 µM): 0.829 | relative viability ([18]; first compound 0.08 µM): 0.739 | relative viability ([18]; first compound 0.8 µM): 0.739 | relative viability ([18]; first compound 2.53 µM): 0.708 | relative viability ([18]; first compound 8 µM): 0.457 | relative viability ([19]; first compound 0.08 µM): 0.257 | relative viability ([19]; first compound 0.8 µM): 0.396 | relative viability ([19]; first compound 2.53 µM): 0.246 | relative viability ([19]; first compound 8 µM): 0.315 | relative viability ([20]; first compound 0.08 µM): 0.82 | relative viability ([20]; first compound 0.8 µM): 0.983 | relative viability ([20]; first compound 2.53 µM): 0.81 | relative viability ([20]; first compound 8 µM): 0.704 | relative viability ([21]; first compound 0.08 µM): 0.372 | relative viability ([21]; first compound 0.8 µM): 0.466 | relative viability ([21]; first compound 2.53 µM): 0.321 | relative viability ([21]; first compound 8 µM): 0.361 | relative viability ([22]; first compound 0.08 µM): 0.406 | relative viability ([22]; first compound 0.8 µM): 0.637 | relative viability ([22]; first compound 2.53 µM): 0.458 | relative viability ([22]; first compound 8 µM): 0.725 | relative viability ([23]; first compound 0.08 µM): 0.666 | relative viability ([23]; first compound 0.8 µM): 0.571 | relative viability ([23]; first compound 2.53 µM): 0.546 | relative viability ([23]; first compound 8 µM): 0.57
